In brackets after ≈: the same amount, converted by molar mass.
Tests used:
Assay type in all cases: cell-based
[1] = test system: Bacillus subtilis ATCC 6623 (Bs); assay: MIC, microdilution (CLSI); details: ATCC6623; Bs, Bacillus subtilis ATCC 6623; n = 3; read-out: MIC
Method: (§1) Compounds were dissolved in dimethyl sulfoxide (DMSO) to achieve a starting concentration of 32 µg/mL as described by us previously. Compounds were further diluted two-fold across the 96-well honeycomb plate columns in cation adjusted Mueller Hinton broth (CAMHB), and bacterial culture was added. Plates were incubated for 18–20 h at 35 ℃ before determining the minimum concentrations at which wells had no visible turbidity to the naked eye. The MIC values were determined from at least a duplicate result obtained from three independent experiments using fresh bacterial cultures on different days.

[2] = test system: E. faecalis ATCC 29212 (Ef12); assay: MIC, microdilution (CLSI); details: Enterococcus faecalis, ATCC29212; Ef12, antibiotic susceptible E. faecalis ATCC 29212; n = 3; read-out: MIC
Method: as §1

[3] = test system: E. faecalis ATCC 51299 (Ef99); assay: MIC, microdilution (CLSI); details: Enterococcus faecalis, ATCC 51299 / VRE; Ef99, vancomycin-resistant (VRE) E. faecalis ATCC 51299; n = 3; read-out: MIC
Method: as §1

[4] = test system: E. faecium ATCC 700221 (Ef21); assay: MIC, microdilution (CLSI); details: Enterococcus faecium, ATCC 700221 / VRE; Ef21, vancomycin-resistant (VRE) E. faecium ATCC 700221; n = 3; read-out: MIC
Method: as §1

[5] = test system: S. aureus ATCC 25923 (Sa23); assay: MIC, microdilution (CLSI); details: Staphylococcus aureus, ATCC25923; Sa23, antibiotic susceptible S. aureus ATCC 25923; n = 3; read-out: MIC
Method: as §1

[6] = test system: S. aureus ATCC 33591 (Sa91); assay: MIC, microdilution (CLSI); details: Staphylococcus aureus, ATCC33591; Sa91, methicillin-resistant S. aureus ATCC 33591; n = 3; read-out: MIC
Method: as §1

[7] = test system: S. aureus ATCC 33592 (Sa92); assay: MIC, microdilution (CLSI); details: Staphylococcus aureus, ATCC33592; Sa92, methicillin-resistant S. aureus ATCC 33592; n = 3; read-out: MIC
Method: as §1

[8] = test system: S. aureus ATCC 700699 (Sa99); assay: MIC, microdilution (CLSI); details: Staphylococcus aureus, ATCC700699; Sa99, methicillin-resistant S. aureus ATCC 700699; n = 3; read-out: MIC
Method: as §1

[9] = test system: S. aureus BAA-2312 (Sa12); assay: MIC, microdilution (CLSI); details: Staphylococcus aureus, BAA2312; Sa12, methicillin-resistant S. aureus BAA-2312; n = 3; read-out: MIC
Method: as §1

[10] = test system: S. epidermidis ATCC 700296 (Se); assay: MIC, microdilution (CLSI); details: Staphylococcus epidermidis, ATCC700296; Se, S. epidermidis ATCC 700296; n = 3; read-out: MIC
Method: as §1

Gram-positive bacteria = assay: MIC across the tested strains; details: across the tested strains
Method: as §1

| MIC [1] [µg/mL] | MIC [2] [µg/mL] | MIC [3] [µg/mL] | MIC [4] [µg/mL] | MIC [5] [µg/mL] | MIC [6] [µg/mL] | MIC [7] [µg/mL] | MIC [8] [µg/mL] | MIC [9] [µg/mL] | MIC [10] [µg/mL] | SMILES | MIC (Gram-positive bacteria) [µg/mL] |
| --- | --- | --- | --- | --- | --- | --- | --- | --- | --- | --- | --- |
| 1 (≈ 1.79 µM) | 2 (≈ 3.58 µM) | 2 (≈ 3.58 µM) | 1 (≈ 1.79 µM) | 2 (≈ 3.58 µM) | 1 (≈ 1.79 µM) | 1 (≈ 1.79 µM) | 2 (≈ 3.58 µM) | 1 (≈ 1.79 µM) | 4 (≈ 7.15 µM) | O=C(O)c1ccc(-n2cc(CNc3ccc(F)c(F)c3F)c(-c3cc(C(F)(F)F)cc(C(F)(F)F)c3)n2)cc1 [Compound 24, 4-[3-[3,5-Bis(trifluoromethyl)phenyl]-4-[(2,3,4-trifluoroanilino)methyl]pyrazol-1-yl] benzoic acid] |  |
| 1 (≈ 1.91 µM) | 4 (≈ 7.64 µM) | 4 (≈ 7.64 µM) | 4 (≈ 7.64 µM) | 2 (≈ 3.82 µM) | 2 (≈ 3.82 µM) | 2 (≈ 3.82 µM) | 4 (≈ 7.64 µM) | 2 (≈ 3.82 µM) | 4 (≈ 7.64 µM) | O=C(O)c1ccc(-n2cc(CNc3ccc(F)cc3)c(-c3cc(C(F)(F)F)cc(C(F)(F)F)c3)n2)cc1 [Compound 8, 4-[3-[3,5-Bis(trifluoromethyl)phenyl]-4-[(4-fluoroanilino)methyl]pyrazol-1-yl] benzoic acid] |  |
| 2 (≈ 3.42 µM) | 4 (≈ 6.85 µM) | 2 (≈ 3.42 µM) | 4 (≈ 6.85 µM) | 2 (≈ 3.42 µM) | 2 (≈ 3.42 µM) | 2 (≈ 3.42 µM) | 2 (≈ 3.42 µM) | 2 (≈ 3.42 µM) | 4 (≈ 6.85 µM) | O=C(O)c1ccc(-n2cc(CNc3cccc(Br)c3)c(-c3cc(C(F)(F)F)cc(C(F)(F)F)c3)n2)cc1 [Compound 10, 4-[3-[3,5-Bis(trifluoromethyl)phenyl]-4-[(3-bromoanilino)methyl]pyrazol-1-yl] benzoic acid] |  |
| 1 (≈ 1.85 µM) | 2 (≈ 3.7 µM) | 2 (≈ 3.7 µM) | 2 (≈ 3.7 µM) | 2 (≈ 3.7 µM) | 2 (≈ 3.7 µM) | 1 (≈ 1.85 µM) | 2 (≈ 3.7 µM) | 1 (≈ 1.85 µM) | 2 (≈ 3.7 µM) | O=C(O)c1ccc(-n2cc(CNc3ccc(Cl)cc3)c(-c3cc(C(F)(F)F)cc(C(F)(F)F)c3)n2)cc1 [Compound 9, 4-[3-[3,5-Bis(trifluoromethyl)phenyl]-4-[(4-chloroanilino)methyl]pyrazol-1-yl] benzoic acid] |  |
| 2 (≈ 3.82 µM) | 8 (≈ 15.3 µM) | 4 (≈ 7.64 µM) | 4 (≈ 7.64 µM) | 4 (≈ 7.64 µM) | 4 (≈ 7.64 µM) | 2 (≈ 3.82 µM) | 4 (≈ 7.64 µM) | 2 (≈ 3.82 µM) | 4 (≈ 7.64 µM) | O=C(O)c1ccc(-n2cc(CNc3cccc(F)c3)c(-c3cc(C(F)(F)F)cc(C(F)(F)F)c3)n2)cc1 [Compound 7, 4-[3-[3,5-Bis(trifluoromethyl)phenyl]-4-[(3-fluoroanilino)methyl]pyrazol-1-yl] benzoic acid] |  |
| 2 (≈ 3.56 µM) | 1 (≈ 1.78 µM) | 0.5 (≈ 0.89 µM) | 2 (≈ 3.56 µM) | 1 (≈ 1.78 µM) | 1 (≈ 1.78 µM) | 2 (≈ 3.56 µM) | 2 (≈ 3.56 µM) | 1 (≈ 1.78 µM) | 1 (≈ 1.78 µM) | CC(C)(C)c1ccc(NCc2cn(-c3ccc(C(=O)O)cc3)nc2-c2cc(C(F)(F)F)cc(C(F)(F)F)c2)cc1 [Compound 3, 4-[3-[3,5-Bis(trifluoromethyl)phenyl]-4-[(4-tert-butylanilino)methyl]pyrazol-1-yl] benzoic acid] |  |
| 4 (≈ 7.47 µM) | 16 (≈ 29.9 µM) | 16 (≈ 29.9 µM) | 8 (≈ 14.9 µM) | 8 (≈ 14.9 µM) | 8 (≈ 14.9 µM) | 8 (≈ 14.9 µM) | 8 (≈ 14.9 µM) | 4 (≈ 7.47 µM) | 16 (≈ 29.9 µM) | COc1ccc(NCc2cn(-c3ccc(C(=O)O)cc3)nc2-c2cc(C(F)(F)F)cc(C(F)(F)F)c2)cc1 [Compound 4, 4-[3-[3,5-Bis(trifluoromethyl)phenyl]-4-[(4-methoxyanilino)methyl]pyrazol-1-yl] benzoic acid] |  |
| 1 (≈ 1.79 µM) | 2 (≈ 3.59 µM) | 2 (≈ 3.59 µM) | 1 (≈ 1.79 µM) | 2 (≈ 3.59 µM) | 1 (≈ 1.79 µM) | 1 (≈ 1.79 µM) | 2 (≈ 3.59 µM) | 1 (≈ 1.79 µM) | 2 (≈ 3.59 µM) | O=C(O)c1ccc(-n2cc(CNc3ccc(F)c(Cl)c3)c(-c3cc(C(F)(F)F)cc(C(F)(F)F)c3)n2)cc1 [Compound 18, 4-[3-[3,5-Bis(trifluoromethyl)phenyl]-4-[(3-chloro-4-fluoro-anilino)methyl]pyrazol-1-yl] benzoic acid] |  |
| 1 (≈ 1.64 µM) | 2 (≈ 3.28 µM) | 2 (≈ 3.28 µM) | 1 (≈ 1.64 µM) | 1 (≈ 1.64 µM) | 1 (≈ 1.64 µM) | 1 (≈ 1.64 µM) | 2 (≈ 3.28 µM) | 2 (≈ 3.28 µM) | 2 (≈ 3.28 µM) | O=C(O)c1ccc(-n2cc(CNc3cc(Cl)c(F)c(Cl)c3F)c(-c3cc(C(F)(F)F)cc(C(F)(F)F)c3)n2)cc1 [Compound 30, 4-[3-[3,5-Bis(trifluoromethyl)phenyl]-4-[(3,5-dichloro-2,4-difluoro-anilino)methyl]pyrazol-1-yl] benzoic acid] |  |
| 1 (≈ 1.79 µM) | 4 (≈ 7.15 µM) | 4 (≈ 7.15 µM) | 2 (≈ 3.58 µM) | 4 (≈ 7.15 µM) | 2 (≈ 3.58 µM) | 2 (≈ 3.58 µM) | 4 (≈ 7.15 µM) | 2 (≈ 3.58 µM) | 4 (≈ 7.15 µM) | O=C(O)c1ccc(-n2cc(CNc3cc(F)c(F)c(F)c3)c(-c3cc(C(F)(F)F)cc(C(F)(F)F)c3)n2)cc1 [Compound 25, 4-[3-[3,5-Bis(trifluoromethyl)phenyl]-4-[(3,4,5-trifluoroanilino)methyl]pyrazol-1-yl] benzoic acid] |  |
| 1 (≈ 1.53 µM) | 2 (≈ 3.07 µM) | 2 (≈ 3.07 µM) | 2 (≈ 3.07 µM) | 1 (≈ 1.53 µM) | 1 (≈ 1.53 µM) | 1 (≈ 1.53 µM) | 2 (≈ 3.07 µM) | 2 (≈ 3.07 µM) | 4 (≈ 6.13 µM) | O=C(O)c1ccc(-n2cc(CNc3ccc(Br)c(C(F)(F)F)c3)c(-c3cc(C(F)(F)F)cc(C(F)(F)F)c3)n2)cc1 [Compound 23, 4-[3-[3,5-Bis(trifluoromethyl)phenyl]-4-[[4-bromo-3-(trifluoromethyl)anilino]methyl]pyrazol-1-yl] benzoic acid] |  |
| 1 (≈ 1.74 µM) | 2 (≈ 3.47 µM) | 2 (≈ 3.47 µM) | 1 (≈ 1.74 µM) | 1 (≈ 1.74 µM) | 1 (≈ 1.74 µM) | 1 (≈ 1.74 µM) | 2 (≈ 3.47 µM) | 1 (≈ 1.74 µM) | 2 (≈ 3.47 µM) | O=C(O)c1ccc(-n2cc(CNc3ccc(F)c(Cl)c3F)c(-c3cc(C(F)(F)F)cc(C(F)(F)F)c3)n2)cc1 [Compound 27, 4-[3-[3,5-Bis(trifluoromethyl)phenyl]-4-[(3-chloro-2,4-difluoro-anilino)methyl]pyraz-ol-1-yl] benzoic acid] |  |

| SMILES | MIC [1] [µg/mL] | MIC [2] [µg/mL] | MIC [3] [µg/mL] | MIC [4] [µg/mL] | MIC [5] [µg/mL] | MIC [6] [µg/mL] | MIC [7] [µg/mL] | MIC [8] [µg/mL] | MIC [9] [µg/mL] | MIC [10] [µg/mL] | MIC (Gram-positive bacteria) [µg/mL] |
| --- | --- | --- | --- | --- | --- | --- | --- | --- | --- | --- | --- |
| Cc1cc(NCc2cn(-c3ccc(C(=O)O)cc3)nc2-c2cc(C(F)(F)F)cc(C(F)(F)F)c2)ccc1Br [Compound 16, 4-[3-[3,5-Bis(trifluoromethyl)phenyl]-4-[(4-bromo-3-methyl-anilino)methyl]pyrazol-1-yl] benzoic acid] | 1 (≈ 1.67 µM) | 1 (≈ 1.67 µM) | 2 (≈ 3.34 µM) | 1 (≈ 1.67 µM) | 1 (≈ 1.67 µM) | 1 (≈ 1.67 µM) | 1 (≈ 1.67 µM) | 2 (≈ 3.34 µM) | 1 (≈ 1.67 µM) | 2 (≈ 3.34 µM) | ≥ 1 |
| O=C(O)c1ccc(-n2cc(CNc3ccccc3)c(-c3cc(C(F)(F)F)cc(C(F)(F)F)c3)n2)cc1 [Compound 1, 4-[4-(Anilinomethyl)-3-[3,5-bis(trifluoromethyl)phenyl]pyrazol-1-yl] benzoic acid] | 2 (≈ 3.96 µM) | 8 (≈ 15.8 µM) | 4 (≈ 7.91 µM) | 4 (≈ 7.91 µM) | 4 (≈ 7.91 µM) | 4 (≈ 7.91 µM) | 4 (≈ 7.91 µM) | 4 (≈ 7.91 µM) | 2 (≈ 3.96 µM) | 8 (≈ 15.8 µM) | ≥ 2 |
| Cc1ccc(NCc2cn(-c3ccc(C(=O)O)cc3)nc2-c2cc(C(F)(F)F)cc(C(F)(F)F)c2)cc1Cl [Compound 15, 4-[3-[3,5-Bis(trifluoromethyl)phenyl]-4-[(3-chloro-4-methyl-anilino)methyl]pyrazol-1-yl] benzoic acid] | 1 (≈ 1.81 µM) | 2 (≈ 3.61 µM) | 2 (≈ 3.61 µM) | 1 (≈ 1.81 µM) | 2 (≈ 3.61 µM) | 1 (≈ 1.81 µM) | 2 (≈ 3.61 µM) | 2 (≈ 3.61 µM) | 1 (≈ 1.81 µM) | 2 (≈ 3.61 µM) | ≥ 1 |

From paper PMC8398255, “Synthesis of 3,5-Bis(trifluoromethyl)phenyl-Substituted Pyrazole Derivatives as Potent Growth Inhibitors of Drug-Resistant Bacteria” (Molecules, 2021)
